Positions count from the first letter of the chain named. Ends that are not written are not given here.
Legend:
Test in all cases: PDK1 activity assay with T308tide
Type in all cases: biochemical
GST-PDK1 [Arg131Ala] = target: T1, GST-PDK1 [Arg131Ala] (Homo sapiens, UniProt O15530, R131A); conditions: for AC50 / Max. activity: GST-PDK1 [Arg131Ala]
T1 construct: different protein constructs, comprising the full length protein or the catalytic domain alone; made in house; host or cells: HEK293 cells (pEBG-2T-PDK1 mutant)
T1 sequence (O15530 1-556 R131A): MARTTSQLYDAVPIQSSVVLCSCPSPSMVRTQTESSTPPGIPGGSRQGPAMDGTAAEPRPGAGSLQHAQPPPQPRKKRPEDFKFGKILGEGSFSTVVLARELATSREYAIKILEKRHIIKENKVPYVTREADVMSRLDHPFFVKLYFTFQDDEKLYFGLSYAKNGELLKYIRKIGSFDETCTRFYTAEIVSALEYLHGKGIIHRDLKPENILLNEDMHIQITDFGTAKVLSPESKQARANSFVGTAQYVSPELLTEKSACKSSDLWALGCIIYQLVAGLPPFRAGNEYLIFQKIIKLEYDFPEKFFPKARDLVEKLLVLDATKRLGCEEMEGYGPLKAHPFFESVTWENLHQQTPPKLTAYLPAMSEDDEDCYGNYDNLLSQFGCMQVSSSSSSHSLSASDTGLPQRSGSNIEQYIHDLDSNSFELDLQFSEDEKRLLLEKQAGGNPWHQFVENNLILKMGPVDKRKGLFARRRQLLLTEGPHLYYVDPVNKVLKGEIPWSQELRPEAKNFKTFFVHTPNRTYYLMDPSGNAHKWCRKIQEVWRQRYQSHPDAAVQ

GST-PDK1 [Leu155Ala] = target: T2, GST-PDK1 [Leu155Ala] (Homo sapiens, UniProt O15530, L155A)
T2 construct: different protein constructs, comprising the full length protein or the catalytic domain alone; made in house; host or cells: HEK293 cells (pEBG-2T-PDK1 mutant)
T2 sequence (O15530 1-556 L155A): T1 sequence (O15530 1-556 R131A) with A131R, L155A

GST-PDK1 [Val124Leu] = target: T3, GST-PDK1 [Val124Leu] (Homo sapiens, UniProt O15530, V124L)
T3 construct: different protein constructs, comprising the full length protein or the catalytic domain alone; made in house; host or cells: HEK293 cells (pEBG-2T-PDK1 mutant)
T3 sequence (O15530 1-556 V124L): T1 sequence (O15530 1-556 R131A) with V124L, A131R

AC50 (GST-PDK1 [Arg131Ala]) [µM]	Max. activity (GST-PDK1 [Arg131Ala]) [U/mg]	AC50 (GST-PDK1 [Leu155Ala]) [µM]	Max. activity (GST-PDK1 [Leu155Ala]) [U/mg]	AC50 (GST-PDK1 [Val124Leu]) [µM]	Max. activity (GST-PDK1 [Val124Leu]) [U/mg]	activation of PDK1 mutant (in words) (GST-PDK1 [Arg131Ala]; Arg131 mutated to Ala)	Molecule
3.7 ± 2	1.24 ± 0.8	3.7 ± 0.66	3.46 ± 0.15	0.35 ± 0.2	0.59 ± 0.04	–	REPRILSEEEQEMFRDFDYIADWC [PIFtide, reference compound]
> 200	1.09 ± 0.06	> 200	2.02 ± 0.61	180 ± 60	1.1 ± 0.13	no longer activated	O=C(O)CSC(CC(=O)c1ccc(Cl)cc1)c1ccccc1 (stereo not shown) [Compound 1]

From patent US20110152166A1, “METHOD OF MODULATION OF PROTEIN PHOSPHORYLATION-DEPENDENT CONFORMATIONAL TRANSITIONS WITH LOW MOLECULAR WEIGHT COMPOUNDS” (priority 2006, published 2011)
